Assay results as given in patent publication US6284769A, “Nonpeptide kappa opioid receptor antagonists” (The Board of Trustees of the University of Illinois, priority 1999, dated 2001).
Where two headings read alike, the source gives them in different places.

Experiments:
[1] = target: T1, μ opioid receptor (Homo sapiens, UniProt P35372); assay: Receptor binding, [3H]DAMGO, membranes of transfected CHO cells
T1 construct: expressed in transfected cells; host or cells: Chinese hamster ovary (CHO) cells, membranes
T1 sequence (P35372 whole entry): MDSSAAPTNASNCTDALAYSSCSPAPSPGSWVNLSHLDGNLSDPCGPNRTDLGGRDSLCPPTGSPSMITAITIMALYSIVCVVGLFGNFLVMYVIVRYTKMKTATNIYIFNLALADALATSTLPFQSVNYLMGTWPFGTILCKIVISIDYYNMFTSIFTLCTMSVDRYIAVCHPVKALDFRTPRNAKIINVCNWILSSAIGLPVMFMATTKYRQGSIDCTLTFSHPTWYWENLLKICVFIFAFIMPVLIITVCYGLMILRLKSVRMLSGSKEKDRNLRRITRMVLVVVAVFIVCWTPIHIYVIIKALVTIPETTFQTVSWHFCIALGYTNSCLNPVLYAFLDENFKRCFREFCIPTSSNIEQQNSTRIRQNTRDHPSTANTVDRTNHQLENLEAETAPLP
Description: (§1) Opioid receptor activity studies were carried out by the method of the Opiate Treatment Discovery Program of the National Institutes of Health. Receptor binding studies were conducted on Chinese hamster ovary (CHO) cells which had been transfected with human DNA encoding for the μ, δ, and κ opiate receptors, respectively.
(§2) The cell line expressing the μ opioid receptor is maintained in Ham's F-12 medium supplemented with 10% fetal bovine serum and 400 μg/ml GENETICIN (G418 sulfate). The cell line expressing the δ opioid receptor is maintained in Ham's F-12 medium supplemented with 10% fetal bovine serum and 500 μg/ml hygromycin B. The cell line expressing the κ opioid receptor is maintained in Dulbecco's minimal essential medium (DMEM) supplemented with 10% fetal bovine serum, 400 μg/ml GENETICIN (G418 sulfate), and 0.1% penicillin/streptomycin. All cell lines are grown to full confluency, then harvested for membrane preparation. The membrane used for functional assays is prepared in buffer A (20 mM HEPES, 10 mM MgCl2, and 100 mM NaCl at pH 7.4) and the membrane for binding assays is prepared in 50 mM Tris buffer, pH 7.7. Cells are harvested by scraping the plates with a rubber policeman and then centrifuged at 500 times gravity for 10 minutes. The cell pellet is suspended in buffer A or Tris buffer, homogenized in a Polytron Homogenizer, and centrifuged at 20,000 times gravity for 20 minutes. The cell pellet is washed in buffer A or Tris, centrifuged at 20,000 times gravity for another 20 minutes, and, finally, suspended in a small amount of buffer to determine protein content. Membrane is aliquoted in small vials at a concentration of 6 mg/ml per vial, stored at -70° C., and used as needed.
Binding assays were conducted using [^3 H]DAMGO, [^3 H]Cl-DPDPE and [^3 H]U69,593 as labelling ligands specific for μ, δ and κ opioid receptors, respectively. DAMGO is Tyr-D-Ala-Gly-NMePhe-[…]. The structural formulae for U69,593 and Cl-DPDPE are [drawing 10] […]
(§3) Samples were filtered over glass fiber filters and counted as described for the binding assays.

[2] = target: T2, δ opioid receptor (Homo sapiens, UniProt P41143); assay: Receptor binding, [3H]Cl-DPDPE, membranes of transfected CHO cells; settings: CHO cell membranes, radioligand [3H]Cl-DPDPE, 1 hour at 25° C., SEM in brackets
T2 construct: expressed in transfected cells; host or cells: Chinese hamster ovary (CHO) cells, membranes
T2 sequence (P41143 whole entry): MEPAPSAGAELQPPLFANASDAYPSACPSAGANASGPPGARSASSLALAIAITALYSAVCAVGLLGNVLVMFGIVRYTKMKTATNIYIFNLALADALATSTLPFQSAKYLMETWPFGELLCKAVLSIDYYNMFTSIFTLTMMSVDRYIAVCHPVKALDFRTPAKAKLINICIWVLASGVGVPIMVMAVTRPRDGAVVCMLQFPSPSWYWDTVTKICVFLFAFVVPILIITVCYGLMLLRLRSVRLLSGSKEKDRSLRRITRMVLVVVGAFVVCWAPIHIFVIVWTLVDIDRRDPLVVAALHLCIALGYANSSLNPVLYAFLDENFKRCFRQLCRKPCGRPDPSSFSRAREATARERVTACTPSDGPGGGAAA
Description: as §1
as §2, with “The cell pellet is suspended in buffer A or Tris buffer, homogenized in a Polytron Homogenizer, and centrifuged at 20,000 times gravity for 20 minutes. The cell pellet is washed in buffer A or Tris, centrifuged at 20,000 times gravity for another 20 minutes, and, finally, suspended in a small amount of buffer to determine protein content. Membrane is aliquoted in small vials at a concentration of 6 mg/ml per vial, stored at -70° C., and used as needed.” left out
as §3

[3] = target: T3, κ opioid receptor (Homo sapiens, UniProt P41145); assay: Receptor binding, [3H]U69,593, membranes of transfected CHO cells; settings: CHO cell membranes, radioligand [3H]U69,593, 1 hour at 25° C., SEM in brackets
T3 construct: expressed in transfected cells; host or cells: Chinese hamster ovary (CHO) cells, membranes
T3 sequence (P41145 whole entry): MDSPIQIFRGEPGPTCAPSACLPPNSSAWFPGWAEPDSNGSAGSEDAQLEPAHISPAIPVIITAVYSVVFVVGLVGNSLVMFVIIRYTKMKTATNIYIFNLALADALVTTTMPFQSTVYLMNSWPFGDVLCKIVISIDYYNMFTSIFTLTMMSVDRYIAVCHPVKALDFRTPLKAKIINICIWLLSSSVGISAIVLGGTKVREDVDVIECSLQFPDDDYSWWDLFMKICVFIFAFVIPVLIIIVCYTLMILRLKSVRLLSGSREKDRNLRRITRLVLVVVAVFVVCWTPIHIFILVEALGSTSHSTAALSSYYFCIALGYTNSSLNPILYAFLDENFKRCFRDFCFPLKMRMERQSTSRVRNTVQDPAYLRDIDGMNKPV
Description: as §1
The cell line expressing the μ opioid receptor is maintained in Ham's F-12 medium supplemented with 10% fetal bovine serum and 400 μg/ml GENETICIN (G418 sulfate). […]
Cell membranes were incubated with the appropriate radioligand and unlabeled compounds of Example 1 in a total volume of 200 μl in 96-well plates, usually for 1 hour at 25° C. […] Filters were dried overnight before radioactivity levels were determined. Nonspecific binding was determined by using 1.0 μM of the unlabeled counterpart of each radioligand.
(§4) Analysis of the data for IC50 values and Hill coefficients was performed using the program PRISM. Opioid receptor binding constants, Ki, were calculated using the Cheng-Prusoff transformation, Ki=IC50 /(1+L/Kd), where L is radioligand concentration and Kd is the binding affinity of the radioligand, as determined previously by saturation analysis. […] Samples were filtered over glass fiber filters and counted as described for the binding assays. […]

[4] = target: T1, μ opioid receptor; assay: [35S]GTPγS agonist/antagonist assay, μ-CHO membrane; type: biochemical
Description: as §1
as §2, with “The cell pellet is suspended in buffer A or Tris buffer, homogenized in a Polytron Homogenizer, and centrifuged at 20,000 times gravity for 20 minutes. The cell pellet is washed in buffer A or Tris, centrifuged at 20,000 times gravity for another 20 minutes, and, finally, suspended in a small amount of buffer to determine protein content. Membrane is aliquoted in small vials at a concentration of 6 mg/ml per vial, stored at -70° C., and used as needed.” left out
as §4
(§5) Agonist activity at μ, δ and κ receptors is reported as % stimulation relative to the respective agonists DAMGO, Cl-DPDPE, and U69,593. […] A full Schild analysis was conducted, utilizing a full agonist dose response curve in the presence of at least three concentrations of the antagonist. pA2 values and Schild slopes were determined using a statistical program designed for these experiments.

[5] = target: T2, δ opioid receptor; assay: [35S]GTPγS agonist/antagonist assay, δ-CHO membrane; type: biochemical
Description: as §1, §2, §3

[6] = target: T3, κ opioid receptor; assay: [35S]GTPγS agonist/antagonist assay with Schild analysis, κ-CHO membrane; type: biochemical
Description: as §1, §2
as §4, with “analysis. See Y. C. Cheng et al., Biochem. Pharmacol., 22, p. 3099-3102 (1973).” for “analysis.”
as §5

[7] = system: δ receptor of the T-cell; assay: Stimulatory activity at the δ receptor of the T-cell of the immune system; type: cell-based; settings: result in words
[8] = In vivo analgesic testing on rats; settings: result in words
[9] = [35S]GTPγS, 60 min at 25° C., SEM in brackets

## CN1CC[C@]23c4c5ccc(O)c4O[C@H]2c2n[nH]cc2C[C@@]3(O)[C@H]1C5 [Example 1, 17-Methyl-6,7-dehydro-3,14-hydroxy-4,5α-epoxy-6,7:5',4'(6,7: 3',4')pyrazolomorphin (tautomers)]
[1]; CHO cell membranes, human μ receptor, radioligand [3H]DAMGO, 1 hour at 25° C., SEM in brackets
  Ki: 3.75 nM
[1]; ratio of binding affinities, μ versus δ
  Selectivity: affinity for μ over δ: about 7 times
[1]; ratio of binding affinities, μ versus κ
  Selectivity: affinity for μ over κ: about 7 times
[2]
  Ki: 19.1 nM
[3]
  Ki: 12.3 nM
[4]; 1 h, [35S]GTPγS, relative to full agonist DAMGO, read-out: % Stimulation μ-CHO membrane
  Emax: 80.3%
[4]; [9]
  EC50: 19.3 nM
[4]; result in words
  Agonist/antagonist property at the μ receptor: agonist
[5]; 1 h, [35S]GTPγS, relative to full agonist Cl-DPDPE, read-out: % Stimulation δ-CHO membrane
  Emax: 75.2%
[5]; [9]
  EC50: 25 nM
[5]; result in words
  Agonist/antagonist property at the δ receptor: agonist
[6]; [35S]GTPγS, antagonism, agonist U69,593, SEM in brackets, read-out: Ke (SEM) κ-CHO membrane
  Kb: 59.3 nM
[6]; full Schild analysis, κ-CHO membrane
  Schild slope: -0.92±0.32
[6]; full Schild analysis, κ-CHO membrane, read-out: pA2 value (converted)
  Kb: 51.3 nM
[6]; result in words
  Agonist/antagonist property at the κ receptor: antagonist
[7]
  Stimulatory activity at the δ receptor of the T-cell: weak stimulatory activity
[8]
  Analgesic activity: potent analgesic activity
  Duration of analgesic activity: long duration of activity
